Reference: the NIST ThermoML archive (doi:10.1021/acs.jced.7b00654)

Assay: xn = mol fraction of the nth substance listed
Conditions: 96.7 kPa, Liquid, Vibrating tube method

CCCCn1cc[n+](C)c1.[Cl-] [1-butyl-3-methylimidazolium chloride] + CC(=O)N(C)C
mass density [kg/m3]
Conditions | x1 = 0.177 | x1 = 0.332 | x1 = 0.428 | x1 = 0.538 | x1 = 0.664 | x1 = 0.816 | x1 = 0.904 | x1 = 1
303.15 K | 980.28 | 1010.24 | 1025.06 | 1038.52 | 1052.4 | 1066.29 | 1073.17 | 1079.41
308.15 K | 976.2 | 1006.61 | 1021.6 | 1035.1 | 1049.19 | 1063.28 | 1070.28 | 1076.58
313.15 K | 972.2 | 1002.98 | 1018.15 | 1031.7 | 1045.95 | 1060.2 | 1067.41 | 1073.78
318.15 K | 968.23 | 999.36 | 1014.71 | 1028.35 | 1042.78 | 1057.21 | 1064.54 | 1070.99
323.15 K | 964.27 | 995.75 | 1011.28 | 1024.85 | 1039.56 | 1054.27 | 1061.66 | 1068.19
328.15 K | 960.32 | 992.15 | 1007.86 | 1021.56 | 1036.44 | 1051.33 | 1058.85 | 1065.36
333.15 K | 956.38 | 988.55 | 1004.46 | 1018.33 | 1033.37 | 1048.41 | 1056.06 | 1062.6
338.15 K | 952.45 | 984.97 | 1001.06 | 1015.16 | 1030.34 | 1045.52 | 1053.26 | 1059.87
343.15 K | 948.53 | 981.38 | 997.67 | 1012.07 | 1027.37 | 1042.67 | 1050.47 | 1057.15
348.15 K | 944.61 | 977.8 | 994.29 | 1009.03 | 1024.45 | 1039.87 | 1047.69 | 1054.42
353.15 K | 940.67 | 974.22 | 990.92 | 1006.06 | 1021.59 | 1037.13 | 1044.91 | 1051.69

c1ccncc1 [pyridine] + CCCCn1cc[n+](C)c1.[Cl-]
mass density [kg/m3]
Conditions | x2 = 0 | x2 = 0.163 | x2 = 0.313 | x2 = 0.404 | x2 = 0.514 | x2 = 0.644 | x2 = 0.803 | x2 = 0.895
303.15 K | 973.09 | 1013.2 | 1035.67 | 1045.6 | 1054.49 | 1063.34 | 1072.41 | 1075.89
308.15 K | 968.06 | 1009.09 | 1032.05 | 1042.19 | 1051.2 | 1060.26 | 1069.51 | 1073.02
313.15 K | 963.02 | 1004.97 | 1028.43 | 1038.78 | 1047.94 | 1057.18 | 1066.59 | 1070.16
318.15 K | 957.97 | 1000.85 | 1024.82 | 1035.39 | 1044.72 | 1054.11 | 1063.66 | 1067.3
323.15 K | 952.9 | 996.73 | 1021.21 | 1032.01 | 1041.52 | 1051.04 | 1060.72 | 1064.45
328.15 K | 947.82 | 992.6 | 1017.6 | 1028.63 | 1038.33 | 1047.99 | 1057.81 | 1061.65
333.15 K | 942.72 | 988.47 | 1014 | 1025.25 | 1035.14 | 1044.96 | 1054.92 | 1058.86
338.15 K | 937.6 | 984.34 | 1010.4 | 1021.89 | 1031.93 | 1041.94 | 1052.08 | 1056.09
343.15 K | 932.46 | 980.21 | 1006.81 | 1018.53 | 1028.66 | 1038.93 | 1049.29 | 1053.31
348.15 K | 927.3 | 976.06 | 1003.22 | 1015.17 | 1025.27 | 1035.92 | 1046.57 | 1050.53
353.15 K | 922.12 | 971.91 | 999.63 | 1011.79 | 1021.81 | 1032.89 | 1044.02 | 1047.77

CCCCn1cc[n+](C)c1.[Cl-] [1-butyl-3-methylimidazolium chloride] + CN(C)C=O
mass density [kg/m3]
Conditions | x1 = 0.151 | x1 = 0.295 | x1 = 0.385 | x1 = 0.493 | x1 = 0.626 | x1 = 0.79 | x1 = 0.887 | x1 = 1
303.15 K | 987.64 | 1016.34 | 1030.08 | 1043.12 | 1055.89 | 1067.73 | 1072.65 | 1079.41
308.15 K | 983.55 | 1012.63 | 1026.56 | 1039.78 | 1052.75 | 1064.72 | 1069.74 | 1076.58
313.15 K | 979.45 | 1008.93 | 1023.05 | 1036.46 | 1049.6 | 1061.75 | 1066.84 | 1073.78
318.15 K | 975.35 | 1005.24 | 1019.54 | 1033.15 | 1046.6 | 1058.83 | 1063.95 | 1070.99
323.15 K | 971.26 | 1001.56 | 1016.05 | 1029.85 | 1043.35 | 1055.91 | 1060.97 | 1068.19
328.15 K | 967.16 | 997.89 | 1012.57 | 1026.56 | 1040.24 | 1052.99 | 1058.13 | 1065.36
333.15 K | 963.07 | 994.21 | 1009.1 | 1023.29 | 1037.16 | 1050.07 | 1055.31 | 1062.6
338.15 K | 958.97 | 990.55 | 1005.66 | 1020.03 | 1034.08 | 1047.16 | 1052.48 | 1059.87
343.15 K | 954.87 | 986.89 | 1002.24 | 1016.78 | 1031.03 | 1044.26 | 1049.67 | 1057.15
348.15 K | 950.78 | 983.24 | 998.82 | 1013.55 | 1027.98 | 1041.39 | 1046.88 | 1054.42
353.15 K | 946.68 | 979.59 | 995.4 | 1010.33 | 1024.94 | 1038.53 | 1044.11 | 1051.69

CCCCn1cc[n+](C)c1.[Cl-] [1-butyl-3-methylimidazolium chloride] + C[S+](C)[O-]
mass density [kg/m3]
Conditions | x1 = 0.161 | x1 = 0.309 | x1 = 0.401 | x1 = 0.509 | x1 = 0.641 | x1 = 0.801 | x1 = 0.894 | x1 = 1
303.15 K | 1090.42 | 1093.72 | 1092.13 | 1089.44 | 1086.22 | 1083.66 | 1081.72 | 1079.41
308.15 K | 1086.85 | 1089.98 | 1088.58 | 1086.09 | 1082.96 | 1080.69 | 1078.88 | 1076.58
313.15 K | 1083.14 | 1086.25 | 1085.04 | 1082.74 | 1079.73 | 1077.69 | 1075.99 | 1073.78
318.15 K | 1079.58 | 1082.54 | 1081.51 | 1079.35 | 1076.52 | 1074.71 | 1073.12 | 1070.99
323.15 K | 1075.76 | 1078.83 | 1078 | 1076.05 | 1073.33 | 1071.78 | 1070.22 | 1068.19
328.15 K | 1072.19 | 1075.14 | 1074.5 | 1072.7 | 1070.18 | 1068.87 | 1067.39 | 1065.36
333.15 K | 1068.87 | 1071.45 | 1071.01 | 1069.47 | 1067.09 | 1065.95 | 1064.59 | 1062.6
338.15 K | 1065.13 | 1067.76 | 1067.54 | 1066.13 | 1064.06 | 1063.04 | 1061.79 | 1059.87
343.15 K | 1061.44 | 1064.1 | 1064.07 | 1062.88 | 1061.11 | 1060.14 | 1058.99 | 1057.15
348.15 K | 1057.69 | 1060.44 | 1060.63 | 1059.65 | 1058.17 | 1057.25 | 1056.19 | 1054.42
353.15 K | 1053.72 | 1056.79 | 1057.19 | 1056.42 | 1055.25 | 1054.38 | 1053.41 | 1051.69
